Measured values from patent US20140088124A1, “IMIDAZOLE DERIVATIVES” (priority 2011, published 2014).

Target: T1, human DGAT1 (Homo sapiens, UniProt O75907)
T1 sequence (O75907 1-488): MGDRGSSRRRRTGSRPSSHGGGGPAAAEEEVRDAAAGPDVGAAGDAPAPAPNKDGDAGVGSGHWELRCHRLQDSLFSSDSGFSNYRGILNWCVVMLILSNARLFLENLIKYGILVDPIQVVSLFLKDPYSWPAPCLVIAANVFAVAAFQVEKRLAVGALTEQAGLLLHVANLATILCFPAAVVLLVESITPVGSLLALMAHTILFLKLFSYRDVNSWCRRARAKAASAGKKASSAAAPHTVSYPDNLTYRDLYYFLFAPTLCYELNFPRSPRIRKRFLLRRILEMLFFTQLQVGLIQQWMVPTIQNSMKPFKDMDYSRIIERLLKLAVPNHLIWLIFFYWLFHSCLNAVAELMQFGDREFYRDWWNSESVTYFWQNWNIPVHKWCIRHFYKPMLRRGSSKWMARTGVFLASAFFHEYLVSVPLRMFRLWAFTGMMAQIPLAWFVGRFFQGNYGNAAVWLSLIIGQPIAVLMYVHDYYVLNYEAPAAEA
Assay: DGAT1 CPM Assay
Format: biochemical
Settings: human DGAT1, CPM fluorescence, 1 hour incubation at room temperature
Description: 20 uL of 90 uM CPM reagent in 90% ethanol was added after 1 hour incubation at room temperature.

| IC50 | SMILES |
| --- | --- |
| 26 nM | N#Cc1ccc2[nH]c(-c3ccc(N4CCC(O[C@H]5CC[C@H](CC(=O)O)CC5)CC4)nc3)nc2c1 [Example 18] |
| 56 nM | O=C(O)CC1CC(OC2CCN(c3ccc(-c4nc5cc(F)ccc5[nH]4)cn3)CC2)C1 (stereo not drawn) [Example 53] |
| 51 nM | O=C(O)CC1CC(OC2CCN(c3ccc(-c4nc5cc(F)ccc5[nH]4)cn3)CC2)C1 (stereo not drawn) [Example 54] |
| 2 nM | O=C(O)[C@H]1CC[C@@H](OC2CCN(c3ccc(-c4nc5cc(C(F)(F)F)ccc5[nH]4)cn3)CC2)CC1 [Example 68, cis-4-[(1-{5-[5-(trifluoromethyl)-1H-benzimidazol-2-yl]pyridin-2-yl}piperidin-4-yl)oxy]cyclohexanecarboxylic acid] |
| 2 nM | O=C(O)[C@H]1CC[C@H](OC2CCN(c3ccc(-c4nc5cc(C(F)(F)F)ccc5[nH]4)cn3)CC2)CC1 [Example 69, trans-4-[(1-{5-[5-(trifluoromethyl)-1H-benzimidazol-2-yl]pyridin-2-yl}piperidin-4-yl)oxy]cyclohexanecarboxylic acid] |
| 11 nM | O=C(O)[C@H]1CC[C@H](OC2CCN(c3ccc(-c4nc5ccc(C(F)(F)F)nc5[nH]4)cn3)CC2)CC1 [Example 70, trans-4-[(1-{5-[5-(trifluoromethyl)-3H-imidazo[4,5-b]pyridin-2-yl]pyridin-2-yl}piperidin-4-yl)oxy]cyclohexanecarboxylic acid] |
| 3 nM | O=C(O)[C@H]1CC[C@H](OC2CCN(c3ccc(-c4nc5cc(Cl)ccc5[nH]4)cn3)CC2)CC1 [Example 71] |
| 35 nM | CCOC(=O)[C@H]1CC[C@H](OC2CCN(c3ccc(-c4nc5cc(Cl)ccc5[nH]4)cn3)CC2)CC1 [Example 72] |
| 71 nM | CCOC(=O)[C@H]1CC[C@H](OC2CCN(c3ccc(-c4nc5cc(F)ccc5[nH]4)cn3)CC2)CC1 [Example 73] |
| 15 nM | O=C(O)[C@H]1CC[C@H](OC2CCN(c3ccc(-c4nc5cc(F)ccc5[nH]4)cn3)CC2)CC1 [Example 74] |
| 14 nM | CCOC(=O)[C@H]1CC[C@@H](OC2CCN(c3ccc(-c4nc5cc(Cl)ccc5[nH]4)cn3)CC2)CC1 [Example 75] |
| 2 nM | O=C(O)[C@H]1CC[C@@H](OC2CCN(c3ccc(-c4nc5cc(Cl)ccc5[nH]4)cn3)CC2)CC1 [Example 76] |
| 17 nM | CCOC(=O)[C@H]1CC[C@@H](OC2CCN(c3ccc(-c4nc5cc(F)ccc5[nH]4)cn3)CC2)CC1 [Example 77] |
| 6 nM | O=C(O)[C@H]1CC[C@@H](OC2CCN(c3ccc(-c4nc5cc(F)ccc5[nH]4)cn3)CC2)CC1 [Example 78] |
| 23 nM | CC1(S(=O)(=O)NC(=O)[C@H]2CC[C@H](OC3CCN(c4ccc(-c5nc6cc(F)ccc6[nH]5)cn4)CC3)CC2)CC1 [Example 80, trans-4-({1-[5-(5-fluoro-1H-benzimidazol-2-yl)pyridin-2-yl]piperidin-4-yl}oxy)-N-[(1-methylcyclopropyl)sulfonyl]cyclohexanecarboxamide] |
| 17 nM | CC(C)S(=O)(=O)NC(=O)[C@H]1CC[C@H](OC2CCN(c3ccc(-c4nc5cc(F)ccc5[nH]4)cn3)CC2)CC1 [Example 81] |
| 17 nM | O=C(NS(=O)(=O)C1CC1)[C@H]1CC[C@H](OC2CCN(c3ccc(-c4nc5cc(F)ccc5[nH]4)cn3)CC2)CC1 [Example 83] |

Continued, compound first:

| SMILES | IC50 |
| --- | --- |
| O=C(O)C[C@H]1CC[C@H](OC2CCN(c3ccc(-c4nc5cc(Cl)ccc5[nH]4)cn3)CC2)CC1 [Example 19] | 3 nM |
| O=C(O)C[C@H]1CC[C@H](OC2CCN(c3ccc(-c4nc5cc(Cl)cnc5[nH]4)cn3)CC2)CC1 [Example 20] | 61 nM |
| Cc1ccc2[nH]c(-c3ccc(N4CCC(O[C@H]5CC[C@H](CC(=O)O)CC5)CC4)nc3)nc2n1 [Example 21] | 440 nM |
| COc1ccc2[nH]c(-c3ccc(N4CCC(O[C@H]5CC[C@H](CC(=O)O)CC5)CC4)nc3)nc2n1 [Example 22] | 51 nM |
| O=C(O)C[C@H]1CC[C@H](OC2CCN(c3ccc(-c4nc5nc(C(F)(F)F)ccc5[nH]4)cn3)CC2)CC1 [Example 23] | 16 nM |
| CCCCc1ccc2nc(-c3ccc(N4CCC(O[C@H]5CC[C@@H](CC(=O)O)CC5)CC4)nc3)[nH]c2c1 [Example 24, [cis-4-({1-[5-(6-butyl-1H-benzimidazol-2-yl)pyridin-2-yl]piperidin-4-yl}oxy)cyclohexyl]acetic acid] | 4 nM |
| O=C(O)C[C@H]1CC[C@@H](OC2CCN(c3ccc(-c4nc5cc(F)c(F)cc5[nH]4)cn3)CC2)CC1 [Example 25] | 3 nM |
| O=C(O)C[C@H]1CC[C@@H](OC2CCN(c3ccc(-c4nc5cc(Cl)ccc5[nH]4)cn3)CC2)CC1 [Example 26] | 3 nM |
| O=C(O)C[C@H]1CC[C@@H](OC2CCN(c3ccc(-c4nc5nc(C(F)(F)F)ccc5[nH]4)cn3)CC2)CC1 [Example 27] | 13 nM |
| O=C(O)[C@H]1C[C@@H](OC2CCN(c3ccc(-c4nc5ccc(C(F)(F)F)cc5[nH]4)cn3)CC2)C1 [Example 32, cis-3-[(1-{5-[6-(trifluoromethyl)-1H-benzimidazol-2-yl]pyridin-2-yl}piperidin-4-yl)oxy]cyclobutanecarboxylic acid] | 9 nM |
| O=C(O)[C@H]1C[C@H](OC2CCN(c3ccc(-c4nc5ccc(C(F)(F)F)cc5[nH]4)cn3)CC2)C1 [Example 33, trans-3-[(1-{5-[6-(trifluoromethyl)-1H-benzimidazol-2-yl]pyridin-2-yl}piperidin-4-yl)oxy]cyclobutanecarboxylic acid] | 7 nM |
| CC(C)(COC1CCN(c2ccc(-c3nc4cc(C(F)(F)F)ccc4[nH]3)cn2)CC1)C(=O)O [Example 34] | 4 nM |
| COC(=O)C(C)(C)COC1CCN(c2ccc(-c3nc4ccccc4[nH]3)cn2)CC1 [Example 35] | 29 nM |
| CC(C)(COC1CCN(c2ccc(-c3nc4ccccc4[nH]3)cn2)CC1)C(=O)O [Example 36] | 67 nM |
| O=C(O)C1(COC2CCN(c3ccc(-c4nc5ccc(C(F)(F)F)cc5[nH]4)cn3)CC2)CCC1 [Example 37] | 2 nM |
| O=C(O)C1(COC2CCN(c3ccc(-c4nc5ccc(C(F)(F)F)cc5[nH]4)cn3)CC2)CC1 [Example 38] | 8 nM |
| O=C(O)C1(COC2CCN(c3ccc(-c4nc5ccc(F)cc5[nH]4)cn3)CC2)CCC1 [Example 39] | 15 nM |
| O=C(O)C1(COC2CCN(c3ccc(-c4nc5ccccc5[nH]4)cn3)CC2)CC1 [Example 41] | 1200 nM |
| O=C(O)C1(COC2CCN(c3ccc(-c4nc5ccccc5[nH]4)cn3)CC2)CCC1 [Example 42] | 50 nM |
| O=C(O)C1(COC2CCN(c3ccc(-c4nc5ccc(Cl)cc5[nH]4)cn3)CC2)CCC1 [Example 43] | 6 nM |

| SMILES | IC50 |
| --- | --- |
| COc1ccc2nc(-c3ccc(N4CCC(OCC5(C(=O)O)CCC5)CC4)nc3)[nH]c2n1 [Example 44] | 89 nM |
| O=C(O)C1(COC2CCN(c3ccc(-c4nc5ccc(C(F)(F)F)cc5[nH]4)cn3)CC2)CCOCC1 [Example 45] | 7 nM |
| O=C(O)C1(COC2CCN(c3ccc(-c4nc5ccc(F)cc5[nH]4)cn3)CC2)CCOCC1 [Example 46] | 97 nM |
| CC(C)(COC1CCN(c2ccc(-c3nc4cc(Cl)ccc4[nH]3)cn2)CC1)C(=O)O [Example 47] | 5 nM |
| COc1ccc2[nH]c(-c3ccc(N4CCC(OCC(C)(C)C(=O)O)CC4)nc3)nc2n1 [Example 48] | 60 nM |
| O=C(O)C1(COC2CCN(c3ccc(-c4nc5ccccc5[nH]4)cn3)CC2)CCOCC1 [Example 49] | 220 nM |
| O=C(O)C1(COC2CCN(c3ccc(-c4nc5ccc(Cl)cc5[nH]4)cn3)CC2)CCOCC1 [Example 50] | 17 nM |
| O=C(O)CC1CC(OC2CCN(c3ccc(-c4nc5ccc(C(F)(F)F)cc5[nH]4)cn3)CC2)C1 (stereo not drawn) [Example 51] | 6 nM |
| O=C(O)CC1CC(OC2CCN(c3ccc(-c4nc5ccc(C(F)(F)F)cc5[nH]4)cn3)CC2)C1 (stereo not drawn) [Example 52] | 10 nM |
| O=C(O)CC1C[C@@H]2CC(OC3CCN(c4ccc(-c5nc6ccc(C(F)(F)F)cc6[nH]5)cn4)CC3)C[C@@H]2C1 (stereo partly drawn) [Example 56] | 2 nM |
| O=C(O)CC1C[C@@H]2CC(OC3CCN(c4ccc(-c5nc6ccc(C(F)(F)F)cc6[nH]5)cn4)CC3)C[C@@H]2C1 (stereo partly drawn) [Example 57] | 2 nM |
| CC(C)(COC1CCN(c2ccc(-c3nc4cc(F)c(F)cc4[nH]3)cn2)CC1)C(=O)O [Example 60] | 16 nM |
| CC(C)(COC1CCN(c2ccc(-c3nc4cc(C(F)(F)F)cnc4[nH]3)cn2)CC1)C(=O)O [Example 61] | 46 nM |
| CC(C)(COC1CCN(c2ccc(-c3nc4cc(C#N)ccc4[nH]3)cn2)CC1)C(=O)O [Example 62] | 90 nM |
| CC(C)(COC1CCN(c2ccc(-c3nc4cc(Cl)cnc4[nH]3)cn2)CC1)C(=O)O [Example 63] | 118 nM |
| CC(C)(COC1CCN(c2ccc(-c3nc4cc(Cl)c(Cl)cc4[nH]3)cn2)CC1)C(=O)O [Example 64] | 2 nM |
| Cc1ccc2[nH]c(-c3ccc(N4CCC(OCC(C)(C)C(=O)O)CC4)nc3)nc2n1 [Example 65] | 790 nM |
| COc1ccc2[nH]c(-c3ccc(N4CCC(OCC(C)(C)C(=O)O)CC4)nc3)nc2n1 [Example 66] | 140 nM |
| O=C(NS(=O)(=O)c1cccnc1)[C@H]1CC[C@H](OC2CCN(c3ccc(-c4nc5cc(F)ccc5[nH]4)cn3)CC2)CC1 [Example 82] | 19 nM |
| O=C(NS(=O)(=O)c1ccccn1)[C@H]1CC[C@H](OC2CCN(c3ccc(-c4nc5cc(F)ccc5[nH]4)cn3)CC2)CC1 [Example 84] | 25 nM |
